Experimental data published in patent US20260265696A1, “HUMAN IPSC DERIVED AMELOBLASTS AND USES THEREOF” (UNIVERSITY OF WASHINGTON, priority 2021, published 2026).

System: hiPSCs (WTC-11) differentiating to ameloblasts (iAM)
Assay: AMBN expression (QRT-PCR) in hiPSC-derived ameloblast (iAM) differentiation, day 10 to day 16, factors removed or added
Assay type: cell-based, human
Conditions: for expression of AMBN when the factor is removed: factor removed independently from differentiation day 10 to day 16, compared to when all factors are present
Method: FIGS. 7A-7E: (FIG. 7A) Schematic of the 16-day differentiation protocol produced, which targets the identified signaling pathways utilizing growth factors and small molecules to transition through the ameloblast developmental trajectory. […] Each study was performed in triplicate, with error bars representing SEM. (FIG. 7C) The efficiency of each pathway activated in the differentiation from day 10 to day 16 were assessed by removing each agonist one at a time or adding FGFR2 mini binder to inhibit the FGFR2 pathway. AMBN expression was assessed in QRT-PCR, and each condition was performed in triplicate. Significance was determined by unpaired Student's t-test; ***p<0.001; ****p<0.0001; Graph error bars are the means±SEM.
To dissect which pathways were essential for the differentiation from day 10 to day 16, the process of elimination was used (FIG. 7C). […] It was hypothesized that the cells in culture secrete enough FGF ligands to saturate the receptors, and any exogenous ligands would have minimal effects. To test this hypothesis, a computationally designed protein was used, FGFR2 mini-binder (FGFR-mb), that specifically binds and inhibits the activity of the FGFR2 (Cao et al., 2022). […] This marks the importance of highly specific AI-designed mini-proteins in analyzing the requirement of signaling pathways in differentiation. It is plausible that temporal preciseness and high penetrance, combined with specificity of designed mini-binders to their targets may partially out-compete in the future genetic perturbations of signaling pathway in iPSC derived differentiation paradigms.
Briefly, hiPSCs (WTC-11 human induced pluripotent stem cells) (Coriell, #GM25256) were seeded on 12-well plates coated with growth factor-reduced Matrigel (Corning, #356231) and cultured in mTeSR1 stem cell medium (StemCell Technologies, #85850) until cells reach confluency with medium changes daily. On the first day of differentiation (deemed Day 0), stem cell media is replaced with ameloblast base media consisted of either EpiCult-C media (StemCell Technologies, #05630) or RPMI 1640 Medium (Thermo, #11875093) mixed with EpiLife (Thermo, #MEPI500CA) at 1:1 ratio, supplemented with 0.1× supplement S7 (Thermo, #S0175), 0.1 uM β-mercaptoethanol (BME) (Sigma, #M7522) and 400 um smoothened agonist (SAG) (Selleckchem, #S7779). At day 3 of differentiation 150 μM of bone morphogenic protein-4 (BMP4) (rndsystems, #314-BP-010) is continuously added daily till day 7. At day 8, the base media is supplemented with 1 uM of BMP-I inhibitor (LDN-193189) (Tocris, #6053), 5 uM of GSK3-Inhibitor (CHIR99021) (Selleckchem, #4423), 500 μM epidermal growth factor (EGF) (rndsystems, #236-EG) and 3.5 μM of Neurotrophin-4 (NT4) (rndsystems, #268-N4). The cultures were then harvested at day 10 at an oral epithelium stage, or extended to day 16 by adding 300 μM BMP4, and 800 nM transforming growth factor beta 1(TGFβ1) (rndsystems, #7754-BH) for the early ameloblast stage at day 16. For testing FGFR signaling requirement for the maturation process we added 50 nM purified FGFR-mb (see below) to the media at day 14 and harvested the samples at day 16 of the differentiation.
RNA was extracted using Trizol (Life Technologies) according to manufacturer's instructions. RNA samples were treated with Turbo DNase (Thermo Fisher Scientific) and quantified using Nanodrop ND-1000. Reverse transcription was performed using iScript cDNA Synthesis Kit (Bio-Rad). […]

Compound | expression of AMBN when the factor is removed | AMBN expression on adding bFGF (bFGF added to differentiation day 10 to day 16)
EGF: epidermal growth factor (NSDSECPLSHDGYCLHDGVCMYIEALDKYACNCVVGYIGERCQYRDLKWWELR; Epidermal growth factor; UniProt P01133 971-1023, looked up) | significantly reduced to less than half | –
bFGF: exogenous FGF ligand added to the differentiation | – | no significant effect
Cc1cnc(-c2cnc(NCCNc3ccc(C#N)cn3)nc2-c2ccc(Cl)cc2Cl)[nH]1 [GSKi, 6-[[2-[[4-(2,4-dichlorophenyl)-5-(5-methyl-1H-imidazol-2-yl)-2-pyrimidinyl]amino]ethyl]amino]-3-pyridinecarbonitrile, reference compound] | completely abolished AMBN expression | –
TGFβ1: transforming growth factor beta 1 | significantly reduced to less than half | –
CN[C@H]1CC[C@H](N(Cc2cccc(-c3ccncc3)c2)C(=O)c2sc3ccccc3c2Cl)CC1 [SAG, 3-chloro-N-[(1r,4r)-4-(methylamino)cyclohexyl]-N-[3-(pyridin-4-yl)benzyl]benzo[b]thiophene-2-carboxamide, reference compound] | significantly reduced to less than half | –
